Measurements: patent publication US20140228377A1, “METHYLPIPERIDINE DERIVATIVE” (TAISHO PHARMACEUTICAL CO., LTD., priority 2011, published 2014)

Tests used:
[1] = target: T1, human orexin-1 receptor (hOX1R) (Homo sapiens, UniProt O43613); test: Orexin antagonistic activity assay (intracellular Ca2+, FDSS) in CHO cells expressing hOX1R; assay type: cell-based; conditions: CHO cells expressing hOX1R; ligand peptide 300 pM; Fluo-3 maximum fluorescence intensity; read-out: IC50 value OX1
T1 construct: expressed in transfected cells; host or cells: Chinese hamster ovary (CHO) cells
T1 sequence (O43613 1-425): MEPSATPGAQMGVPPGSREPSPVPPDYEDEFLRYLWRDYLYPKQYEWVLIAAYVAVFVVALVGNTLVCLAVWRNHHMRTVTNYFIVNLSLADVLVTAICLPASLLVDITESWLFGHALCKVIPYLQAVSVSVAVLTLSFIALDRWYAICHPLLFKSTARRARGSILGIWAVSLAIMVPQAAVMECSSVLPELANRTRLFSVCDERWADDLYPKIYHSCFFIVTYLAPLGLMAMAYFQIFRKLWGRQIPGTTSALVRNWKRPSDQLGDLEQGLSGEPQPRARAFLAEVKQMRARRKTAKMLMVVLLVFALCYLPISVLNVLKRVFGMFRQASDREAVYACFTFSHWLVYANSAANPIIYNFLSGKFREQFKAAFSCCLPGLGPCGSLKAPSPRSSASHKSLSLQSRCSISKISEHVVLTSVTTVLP
Summary of the method: (§1)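 Recombinant CHO cells, Fluo-3 AM loaded, were preincubated 30 min with compound, then stimulated with a modified orexin-A peptide (300 pM for hOX1R, 3 nM for hOX2R). Peak Ca2+ fluorescence read each second for 3 min; IC50 from concentration-response, normalised to ligand-only (100%) and no-ligand (0%) wells.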

[2] = target: T2, orexin-2 receptor (hOX2R) (Homo sapiens, UniProt O43614); test: Orexin antagonistic activity assay (intracellular Ca2+, FDSS) in CHO cells expressing hOX2R; assay type: cell-based; conditions: CHO cells expressing hOX2R; ligand peptide 3 nM; Fluo-3 maximum fluorescence intensity; read-out: IC50 value OX2
T2 construct: expressed in transfected cells; host or cells: Chinese hamster ovary (CHO) cells
T2 sequence (O43614 1-444): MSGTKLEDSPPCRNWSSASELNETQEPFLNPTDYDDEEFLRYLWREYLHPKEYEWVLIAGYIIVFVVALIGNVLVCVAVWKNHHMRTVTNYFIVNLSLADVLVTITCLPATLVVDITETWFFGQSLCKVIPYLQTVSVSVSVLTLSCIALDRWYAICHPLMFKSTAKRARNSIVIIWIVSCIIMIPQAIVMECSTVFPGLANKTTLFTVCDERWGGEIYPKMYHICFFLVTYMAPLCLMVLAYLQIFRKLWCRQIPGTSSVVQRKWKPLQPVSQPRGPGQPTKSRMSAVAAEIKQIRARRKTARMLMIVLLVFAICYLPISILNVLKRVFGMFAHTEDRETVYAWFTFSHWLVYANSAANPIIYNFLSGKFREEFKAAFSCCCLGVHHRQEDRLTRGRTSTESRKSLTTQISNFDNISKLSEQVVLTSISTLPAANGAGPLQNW
Summary of the method: as §1

[3] = Metabolic stability test using human liver microsomes; assay type: in vitro ADME; conditions: human liver microsomes 0.25 mg protein/mL, test compound 1 μM, 37° C., 15 minutes, NADPH production system
Experimental: The stability test on a test compound was conducted according to the following method using human liver microsomes (Ms):
The test compound was incubated (37° C., 15 minutes) together with human liver microsome fraction (XenoTech LLC; H630B, lot. 0810472) in a 0.1 M phosphate buffer solution (pH 7.4) in the presence of a NADPH production system (0.16 mM NADP+, 2.5 mM MgCl2, and 1.5 mM glucose-6-phosphate). The final concentrations of the test compound and the liver Ms protein were set to 1 μM and 0.25 mg protein/mL, respectively. After the incubation, the reaction mixture was supplemented with a 2-fold volume of DMSO, stirred, and then centrifuged at 2150×g (4° C., 10 minutes). The obtained supernatant was analyzed using a liquid chromatography tandem mass spectrometry (LC-MS/MS) system. The lower limit of quantification was 0.1 μM.

Row | IC50 [1] | IC50 [2] | rate of metabolism [3] | SMILES
1 | 11 nM | 12.2 nM | 27.8% | Cc1ccc(-n2nccn2)c(C(=O)N2C[C@H](c3nc4cc(Cl)ccc4o3)CC[C@H]2C)n1 [Example 1, [(2R,5R)-5-(5-Chloro-1,3-benzoxazol-2-yl)-2-methylpiperidin-1-yl][6-methyl-3-(2H-1,2,3-triazol-2-yl)pyridin-2-yl]methanone]
2 | 24.8 nM | 4.3 nM |  | Cc1ccc(-n2nccn2)c(C(=O)N2C[C@H](c3nc4cc(F)cc(F)c4o3)CC[C@H]2C)c1 [Example 62, [(2R,5R)-5-(5,7-Difluoro-1,3-benzoxazol-2-yl)-2-methylpiperidin-1-yl][5-methyl-2-(2H-1,2,3-triazol-2-yl)phenyl]methanone]
3 | 29.1 nM | 5.5 nM |  | Cc1ccc(-c2ncccn2)c(C(=O)N2C[C@H](c3nc4cc(F)cc(F)c4o3)CC[C@H]2C)c1 [Example 63, [(2R,5R)-5-(5,7-Difluoro-1,3-benzoxazol-2-yl)-2-methylpiperidin-1-yl][5-methyl-2-(pyrimidin-2-yl)phenyl]methanone]
4 | 144 nM | 28.5 nM |  | Cc1ccc(-n2nccn2)c(C(=O)N2C[C@H](c3nc4cc(F)cc(F)c4o3)CC[C@H]2C)n1 [Example 64, [(2R,5R)-5-(5,7-Difluoro-1,3-benzoxazol-2-yl)-2-methylpiperidin-1-yl][6-methyl-3-(2H-1,2,3-triazol-2-yl)pyridin-2-yl]methanone]
5 | 8.6 nM | 6.6 nM |  | Cc1ccc(-n2nccn2)c(C(=O)N2C[C@H](c3nc4cccc(F)c4o3)CC[C@H]2C)c1 [Example 65, [(2R,5R)-5-(7-Fluoro-1,3-benzoxazol-2-yl)-2-methylpiperidin-1-yl][5-methyl-2-(2H-1,2,3-triazol-2-yl)phenyl]methanone]
6 | 36.5 nM | 20.4 nM |  | Cc1ccc(-n2nccn2)c(C(=O)N2C[C@H](c3nc4c(F)cccc4o3)CC[C@H]2C)c1 [Example 66, [(2R,5R)-5-(4-Fluoro-1,3-benzoxazol-2-yl)-2-methylpiperidin-1-yl][5-methyl-2-(2H-1,2,3-triazol-2-yl)phenyl]methanone]
7 | 27.7 nM | 25.9 nM |  | Cc1ccc(-c2ncccn2)c(C(=O)N2C[C@H](c3nc4c(F)cccc4o3)CC[C@H]2C)c1 [Example 67, [(2R,5R)-5-(4-Fluoro-1,3-benzoxazol-2-yl)-2-methylpiperidin-1-yl][5-methyl-2-(pyrimidin-2-yl)phenyl]methanone]
8 | 7.1 nM | 4.6 nM |  | Cc1ccc(-n2nccn2)c(C(=O)N2C[C@H](c3nc4c(Cl)cccc4o3)CC[C@H]2C)c1 [Example 68, [(2R,5R)-5-(4-Chloro-1,3-benzoxazol-2-yl)-2-methylpiperidin-1-yl][5-methyl-2-(2H-1,2,3-triazol-2-yl)phenyl]methanone]
9 | 4.4 nM | 5.5 nM |  | Cc1ccc(-c2ncccn2)c(C(=O)N2C[C@H](c3nc4c(Cl)cccc4o3)CC[C@H]2C)c1 [Example 69, [(2R,5R)-5-(4-Chloro-1,3-benzoxazol-2-yl)-2-methylpiperidin-1-yl][5-methyl-2-(pyrimidin-2-yl)phenyl]methanone]
10 | 12.3 nM | 16.2 nM |  | C[C@@H]1CC[C@@H](c2nc3c(Cl)cccc3o2)CN1C(=O)c1cc(F)ccc1-c1ncccn1 [Example 70, [(2R,5R)-5-(4-Chloro-1,3-benzoxazol-2-yl)-2-methylpiperidin-1-yl][5-fluoro-2-(pyrimidin-2-yl)phenyl]methanone]
11 | 106 nM | 6.1 nM |  | Cc1ccc(-n2nccn2)c(C(=O)N2C[C@H](c3nc4cc(Cl)cnc4o3)CC[C@H]2C)c1 [Example 71, [(2R,5R)-5-(6-Chloro[1,3]oxazolo[5,4-b]pyridin-2-yl)-2-methylpiperidin-1-yl][5-methyl-2-(2H-1,2,3-triazol-2-yl)phenyl]methanone]
12 | 412 nM | 80.5 nM |  | C[C@@H]1CC[C@@H](c2nc3cc(Cl)cnc3o2)CN1C(=O)c1ccc(F)cc1-n1nccn1 [Example 72, [(2R,5R)-5-(6-Chloro[1,3]oxazolo[5,4-b]pyridin-2-yl)-2-methylpiperidin-1-yl][4-fluoro-2-(2H-1,2,3-triazol-2-yl)phenyl]methanone]
